From a melting point compilation (Tetko et al.; mined from patent text by program, amines drawn as free bases though some values may be those of a salt)

Row | Structure (SMILES) | melting point [°C]
1 | Fc1ccc(C2(Cl)CN(C(c3ccccc3)c3ccccc3)C2)cc1 | 108 to 109
2 | COC(=O)c1ccc(-c2nc(COc3ccc(C=O)cc3OC)c(C)o2)cc1 | 185 to 186
3 | CNC1=Nc2ccsc2C(c2ccccc2)=NC1 | 223 to 227
4 | CN=C1SCC(O)(c2ccc(Cl)c(S(=O)(=O)N(C)C)c2)N1C (stereo unspecified) | 157 to 158
5 | O=C(CC12CC3CC(CC(C3)C1)C2)Nc1cccc2nc(CCCNCCCO)ccc12 | 130 to 135
6 | Cn1ccnc1Sc1ccc(Nc2c(C#N)cnc3cc(/C=C/CCO)ccc23)cc1Cl | 205 to 210
7 | CCOCC(=O)Nc1c(NCC(C)C)cc(C)n2nnnc12 | 182 to 185
8 | CNc1c([N+](=O)[O-])cc2c(=O)c(C(=O)O)cn(-c3cc(N)c(F)cc3F)c2c1C | 275 to 281
9 | O=c1c2c(Cc3ccccc3C(F)(F)F)n[nH]c2c2cccnc2n1-c1cccc(OC(F)(F)F)c1 | 252 to 255
10 | Cc1cnc(SCc2cc3c(cc2O)CCCO3)n1C | 139 to 140
11 | CCCC(=O)NCCCC1c2ccccc2C=Cc2ccccc21 | 76 to 80
12 | COc1cc2c(cc1O)CCN(Cc1cccc(OC)c1OC)C2 | 101 to 102
13 | O=C(C[N+](=O)[O-])c1ccc(-c2ccc(-c3ccc4ccccc4n3)cc2)cc1 | 160 to 162
14 | CC12CCC(O)CC1CCC1C2CCC2(C)C(C=NNC(=N)N)CCC12O (stereo unspecified) | 163 to 165
15 | O=C(O)CCCCCCNC(=O)C(CS)Cc1ccccc1 (stereo unspecified) | 71 to 73
16 | CCOC(=O)C1(C(=O)OCC)CCC2(CC1)NCCc1cc(O)c(O)cc12 | 180 to 181
17 | C=CCC1(C(=O)NCCC)c2ccccc2CCc2ccccc21 | 76 to 79
18 | COC(=O)c1cccc(-c2ccccc2)c1S(C)(=O)=O | 101 to 115
19 | O=C1NN(C(=O)c2ccccc2NCc2ccccc2)Cc2ccccc21 | 206 to 208
20 | CCOC(=O)C1=C(N=CN(C)C)NC(C)=C(C(=O)OC(C)C)C1c1ccccc1Cl (stereo unspecified) | 138
21 | CCCCCCCCCCCCCCC/C=C/C=O | 35
22 | Cn1ncc(C(=O)N2CCC2)c1C(=O)Nc1ccn2nc(N3CCCC3)nc2c1 | > 250
23 | CCc1c(-c2ccc(O)cc2)c2cc(COCCCN3CCCCC3)c3cccc1n32 | 176 to 178
24 | O=C(O)c1cnc2oc(C(=O)O)cc2c1 | > 315
25 | O=C(O)CCC(CCNCCc1ccccc1)n1nc(Cc2ccc(F)cc2)c2ccccc2c1=O (stereo unspecified) | 190 to 191
26 | c1ccc(COc2ccc(-c3cscn3)cc2)cc1 | 109 to 110

Row | Structure (SMILES) | melting point [°C]
27 | Cc1n[nH]c(=O)n(Cc2ccccc2)c1=O | 143 to 146
28 | CNc1nc(Cl)nc2cc(OC)c(OC)cc12 | 216 to 217
29 | CN(C)Cc1ccc(OCC(=O)N2CCN(c3ccc(N4C[C@H](CNC(=S)C5CC5)OC4=O)cc3F)CC2)cc1 | 169 to 170
30 | CCCc1nn(-c2ccc(C(F)(F)F)cn2)cc1CCCOc1nn(C2CCCCC2)cc1CC(=O)O | 127 to 128
31 | CCCCCCCNC(=O)CCCCO | 53 to 54
32 | CCOC(=O)c1c(NC(=O)NC(C)C)sc(C)c1C | 135
33 | Cc1cc(C)c2nc(C3CC3)n(Cc3ccc(C4(C(=O)O)CC=CC4)s3)c2n1 | 184 to 185
34 | COC1Oc2c(c(=O)oc3cc(O)ccc23)C1c1c(O)c2ccc(O)cc2oc1=O (stereo unspecified) | > 300
35 | O=C(O)c1ccc(Cn2ccc3cc(OCc4ccc5ccccc5n4)ccc32)cc1 | 212 to 216
36 | CC(C)P1(=O)c2ccccc2CN1c1ccccc1 (stereo unspecified) | 145 to 147
37 | Cc1ccc(OC2CCN(C(C=O)Nc3ccc4c(c3)OCC(=O)N4)CC2)cc1 (stereo unspecified) | 223 to 224
38 | Cc1cccc(Sc2c(O)cc(-c3ccccc3)oc2=O)c1 | 197 to 198
39 | CCCCCCOc1ccc(NC(=O)c2cnc(C(=O)OC)c(OC)c2)cc1 | 118 to 119
40 | O=C(NO)c1ccc2c(c1)CCN(C(=O)C1CC1)C2 | 90
41 | Cc1cc(SCc2sc(-c3ccc(C(F)(F)F)c(F)c3)nc2C)ccc1OCC(=O)O | < 50
42 | O=C(Nc1cccnc1Cl)c1ccco1 | 102
43 | CCCNCCc1ccc(NS(=O)(=O)c2ccc(Cl)cc2)cc1 | 137 to 140
44 | O=C1CCCc2ccc(-c3ccccc3)cc21 | 67
45 | CCC(=O)C1CN(C(c2ccccc2)c2ccccc2)C1 | 73 to 75
46 | OC(c1ccc(Cl)cc1)(c1ccc(Cl)cc1)c1nccn1Cc1ccccc1 | 167 to 168
47 | COc1cccc(Cn2c(-c3ccccc3)nc(Cl)c2CC(=O)O)c1 | 135 to 138
48 | CC(C)(C)c1coc(N)c1C#N | 86
49 | Nc1c(C(O)(C(F)(F)F)C(F)(F)F)ccc2cc(O)ccc12 | 160 to 161
50 | CC(=O)OC1CCCC2=CCC3C4CCC(C(C)CCCC(C)C)C4(C)CCC3C21C (stereo unspecified) | 65 to 66
51 | CC(=O)c1ccc2nc3ccc(C(=O)O)cc3c(=O)n2c1 | 305 to 309
52 | CCOC(=O)C(=O)NNC(=O)c1ccc(OCC)cc1 | 126

Row | Structure (SMILES) | melting point [°C]
53 | O=C1c2ccccc2C(=O)N1CC1CC(=O)N(Cc2ccccc2)c2ccccc2N1 (stereo unspecified) | 127 to 130
54 | CC(=O)OC1CCC2(C)C(=CCC3C2CCC2(C)C(C(C)CO)=CCC32)C1 (stereo unspecified) | 170 to 171
55 | O=C(O)c1cccc(-n2c(=O)c3c(Cc4ccccc4)n[nH]c3c3cccnc32)c1 | 300 to 305
56 | COc1ccc(C=C2C(=O)C3(C)CCC2C3(C)C)cc1OC (stereo unspecified) | 107
57 | Cc1csc(Cl)c1NC(=S)Nc1cscc1N | 132 to 135
58 | O=C(NCCCCCNc1c([N+](=O)[O-])cnc2ccccc12)c1ccccc1 | 130 to 132
59 | O=c1ccc(S(=O)(=O)c2oc3ccccc3c2O)n[nH]1 | 186 to 189
60 | COc1ccc(C(=O)NNC(=O)C(F)(F)F)cc1 | 147 to 148
61 | COc1cc(C(C)C)cc(OC)c1-c1nc(N)sc1CCC1CCCCC1 | 143
62 | CN1CCC(c2cc3c(F)cccc3c(=O)[nH]2)CC1 | 220 to 222
63 | O=C1CCOc2ccc(/C=C/c3nc4cc(F)ccc4s3)cc21 | 197 to 199
64 | OCCNC(=S)NC(Cc1cccs1)c1ccccc1 (stereo unspecified) | 109 to 112
65 | Cc1ccc(C2(c3ccc(C)cc3)NC(=O)N(CCCN3CCC(C#N)(c4ccccc4)CC3)C2=O)cc1 | 157 to 159
66 | CCOC(=O)NC(C)CCC1(O)c2ccccc2CCc2c(C)cccc21 (stereo unspecified) | 132 to 134
67 | COc1cc(-n2nc3ccc(Cl)cn3c2=O)c(F)cc1N | 138 to 140
68 | C=CCOc1cccc2c(=O)cc(N3CCOCC3)oc12 | 134 to 136
69 | COc1cc(CNC(=O)c2nc3sccc3c(=O)[nH]2)ccc1Br | 196 to 198
70 | Clc1ccc(Nc2nc3ccccc3c3[nH]c(C4CCCC4)nc23)cc1 | 189 to 190
71 | Nc1ccccc1NC(=O)CCCCCCNC(=O)c1cn2c3c(cccc13)CCC2 | 144 to 145
72 | O=C(Nc1cccc(S(=O)(=O)N2CCCC2)c1)c1cnn2c(C(F)(F)F)cc(-c3ccc(Cl)cc3)nc12 | 252
73 | COc1cc(CO)cc(OC)c1OCCO | 26 to 28
74 | OC1c2cc(OCc3ccc4ccccc4n3)ccc2OCC1Cc1c[nH]c2ccccc12 (stereo unspecified) | 60
75 | O=C1c2ccccc2C(=O)N1OCc1cn(C(c2ccccc2)(c2ccccc2)c2ccccc2)cn1 | 155 to 157
76 | CN(CCc1ccc(Nc2ncc3c(n2)-c2ccccc2[C@H](c2ccc(F)cc2)C3)cc1)C1CCCCC1 | 160 to 162
77 | Cc1nc(-c2ccc(Cl)cc2)n(-c2ccc(S(N)(=O)=O)cn2)n1 | 215 to 217
78 | COC(=O)COc1ccc(C)c2c1c1c(n2Cc2ccccc2)CCCC1C(N)=O (stereo unspecified) | 209

Row | Structure (SMILES) | melting point [°C]
79 | COc1ccc(-n2c(-c3ccc([N+](=O)[O-])cc3)nnc2C(C)O)cc1 (stereo unspecified) | 140
80 | COc1ccccc1S(=O)(=O)OC(Cl)C(=O)c1ccccc1 (stereo unspecified) | 83
81 | CC(C)(C)OC(=O)n1c(-c2ccc3c(c2)C(C)(C)OC(=O)N3)ccc1[N+](=O)[O-] | 125
82 | CNC(=S)Nc1cc(Cl)ccc1C | 139 to 140
83 | O=C(Cc1ccccc1)NCc1cccc2c1C(=O)N(C1CCC(=O)NC1=O)C2=O (stereo unspecified) | 128 to 130
84 | CC(C)(C)c1cc(-c2ccccc2)c(Oc2cccc(C#N)c2C#N)c(-c2ccccc2)c1 | 189 to 192
85 | CN1CCc2c(c3ccccc3n2CCc2nc(-c3ccncc3)cs2)C1 | 158 to 160
86 | CCCCc1nc(C(C)O)c(C(=O)O)n1Cc1ccc(-c2ccccc2C(=O)O)cc1 (stereo unspecified) | 168 to 170
87 | O=C1CNc2ncc(-c3cccnc3)cc2N1Cc1ccccc1 | 58
88 | O=C(N[C@H](Cc1cccc(OC(F)(F)C(F)F)c1)[C@@H](O)c1csc(-c2ccccc2)n1)c1ccc(F)c2ccccc12 (racemic) | 148 to 150
89 | CCOC(=O)C(=CNc1ccc(Br)cc1)C(=O)OCC | 100 to 102
90 | CS(=O)(=O)N(Cc1cccnc1)c1ccccc1 | 104 to 105
91 | CC1=Cc2ccc(Cl)cc2C(c2ccc([N+](=O)[O-])c(C)c2)=NN1C(=O)Oc1ccccc1 | 188 to 190
92 | Cc1cc(SC2CC(=O)N(C)C2=O)cc(C(C)(C)C)c1N (stereo unspecified) | 92 to 94
93 | CC(NC(=O)Cc1cc(F)cc(F)c1)C(=O)NC1C(=O)NCc2cc(Cc3ccccc3)ccc21 (stereo unspecified) | 159 to 166
94 | CC[C@H](COC)n1cc(Cl)nc(N2CCc3cc(Cl)cc(Cl)c32)c1=O | 143 to 146
95 | CC1(C(O)C(N)=O)CC=CCC1 (stereo unspecified) | 102 to 110
96 | COC(=O)CCC(CCCCNS(=O)(=O)c1ccc(Cl)cc1)CCOc1cccnc1 (stereo unspecified) | 57 to 58
97 | Nc1cc(O)ccc1F | 137 to 139
98 | CCc1cccc(C)c1CNc1nc(Br)cnc1N | 155
99 | OC(CCCN1CC=C(c2ccccc2)CC1)c1ccc(Cc2ccc(Cl)cc2)cc1 (stereo unspecified) | 108 to 111
100 | CC(CC(=O)c1ccc2c(c1)C(C)(C)CCC2(C)C)C(=O)O (stereo unspecified) | 165
101 | CC(C)(C)c1cc(CNc2cccc(Br)c2CO)c(C(=O)O)s1 | 68 to 69
